Data on eleven compounds can be found in patent US9611251B2, “Substituted piperidine compounds and their use as orexin receptor modulators” (Janssen Pharmaceutica NV, priority 2013, dated 2017).

The target in one experiment is rat orexin 1 receptor (Rattus norvegicus, UniProt P56718). The experiment can be described thus: Rat orexin 1 receptor radioligand binding. To be noted: rat orexin 1 receptor radioligand binding; averages of 2-20 runs; read-out: rOX1 Ki. As for the experimental part:
(§1) Data are analyzed using pc-Sandy macro and graphed on Graphpad Prism 5. For analysis, each concentration point is averaged from triplicate values and the averaged values are plotted on Graphpad Prism. The IC50 was determined by applying the following equation (GraphPad Prism 5.0, SanDiego) for one site competition where X=log (concentration) and Y=specific binding. Top denotes the total [^3H]-(1-(5-(2-fluoro-phenyl)-2-methyl-thiazol-4-yl)-1-((S)-2-(5-phenyl-(1,3,4)oxadiazol-2-ylmethyl)-pyrrolidin-1-yl)-methanone) binding, bottom denotes the nonspecific [^3H]-(1-(5-(2-fluoro-phenyl)-2-methyl-thiazol-4-yl)-1-((S)-2-(5-phenyl-(1,3,4)oxadiazol-2-ylmethyl)-pyrrolidin-1-yl)-methanone) binding. Graphpad Prism calculates Ki value from IC50 and the pre-determined Kd values for [^3H]-(1-(5-(2-fluoro-phenyl)-2-methyl-thiazol-4-yl)-1-((S)-2-(5-phenyl-(1,3,4)oxadiazol-2-ylmethyl)-pyrrolidin-1-yl)-methanone) and [3H]-EMPA. The Ki for each compound is then uploaded into 3DX. Each run comprises individual compounds in triplicate.
(§2) Rat and Human Orexin 1 Receptor Radioligand Binding Studies
After centrifugation (2K×G, 5 min at 4° C.), the supernatant was aspirated and the pellets frozen and stored at −80° C. […] Each cell pellet from a 15 cm plate was resuspended in 10 mL, stored on ice, and homogenized for 45 sec prior to addition to the reactions. Competition binding experiments in 96 well polypropylene plates were performed using [^3H]-(1-(5-(2-fluoro-phenyl)-2-methyl-thiazol-4-yl)-1-((S)-2-(5-phenyl-(1,3,4)oxadiazol-2-ylmethyl)-pyrrolidin-1-yl)-methanone) (Moraveck Corporation, specific activity=35.3 Ci/mmol), diluted to a 10 nM concentration in PBS (4 nM final). […] The final concentration of DMSO in the reactions is equal to or less than 0.1%. Total and nonspecific binding was determined in the absence and presence of 10 μM almorexant. The total volume of each reaction is 200 μL (20 μL of diluted compounds, 80 μL of [^3H]-(1-(5-(2-fluoro-phenyl)-2-methyl-thiazol-4-yl)-1-((S)-2-(5-phenyl-(1,3,4)oxadiazol-2-ylmethyl)-pyrrolidin-1-yl)-methanone) diluted in PBS and 100 μL of the cell suspension). […] The plates were washed 3 times by aspirating 30 ml PBS through the plates. Plates were dried in 55° C. oven for 60 min, scintillation fluid was added, and the radioactivity was counted on a Topcount (Packard).

The target of another experiment is human orexin 1 receptor (Homo sapiens, UniProt O43613). The experiment can be described thus: Human orexin 1 receptor radioligand binding. To be noted: human orexin 1 receptor radioligand binding; averages of 2-20 runs; read-out: hOX1 Ki. As for the experimental part:
The in vitro affinity of the compounds of the invention for the rat/human orexin 1 and human orexin 2 receptors was determined by competitive radioligand binding using [^3H](1-(5-(2-fluoro-phenyl)-2-methyl-thiazol-4-yl)-1-((S)-2-(5-phenyl-(1,3,4)oxadiazol-2-ylmethyl)-pyrrolidin-1-yl)-methanone) (Langmead et al., 2004) and [^3H]EMPA (n-ethyl-2[96-methoxypyridin-3-yl)-(toluene-2-sulfonyl)-amino]-N-pyridin-3-ylmethyl acetamide), respectively (Langmead et al., 2004, British Journal of Pharmacology 141:340-346; Malherbe et al., 2004, British Journal of Pharmacology 156:1326-41).
as §1, §2
Human Embryonic Kidney 293 cells (HEK293) stably expressing rat orexin 1 receptor (Genebank accession number NM_001525) or Chinese ovary cells (CHO) stably expressing human orexin 1 receptor (Genebank accession number NM_001526) were grown to confluency in DMEM (Hyclone, cat #SH30022), 10% FBS, 1×Pen/Strep, 1× sodium pyruvate, 10 mM HEPES, 600 μg/mL G418 and DMEM/F12 (Gibco, Cat #11039), 10% FBS, 1×Pen/Strep, 600 μg/mL G418 media, respectively on 150 cm^2 tissue culture plates, washed with 5 mM EDTA in PBS (HyClone Dulbecco's Phosphate Buffered Saline 1× with Calcium and Magnesium, Cat #SH30264.01, hereafter referred to simply as PBS) and scraped into 50 ml tubes. After centrifugation (2K×G, 5 min at 4° C.), the supernatant was aspirated and the pellets frozen and stored at −80° C. Cells were resuspended in PBS in the presence of 1 tablet of protease inhibitor cocktail (Roche, Cat. #11836145001) per 50 mL. Each cell pellet from a 15 cm plate was resuspended in 10 mL, stored on ice, and homogenized for 45 sec prior to addition to the reactions. Competition binding experiments in 96 well polypropylene plates were performed using [^3H]-(1-(5-(2-fluoro-phenyl)-2-methyl-thiazol-4-yl)-1-((S)-2-(5-phenyl-(1,3,4)oxadiazol-2-ylmethyl)-pyrrolidin-1-yl)-methanone) (Moraveck Corporation, specific activity=35.3 Ci/mmol), diluted to a 10 nM concentration in PBS (4 nM final). […] The final concentration of DMSO in the reactions is equal to or less than 0.1%. Total and nonspecific binding was determined in the absence and presence of 10 μM almorexant. The total volume of each reaction is 200 μL (20 μL of diluted compounds, 80 μL of [^3H]-(1-(5-(2-fluoro-phenyl)-2-methyl-thiazol-4-yl)-1-((S)-2-(5-phenyl-(1,3,4)oxadiazol-2-ylmethyl)-pyrrolidin-1-yl)-methanone) diluted in PBS and 100 μL of the cell suspension). Reactions were run for 60 min at room temperature and terminated by filtration through GF/C filter plates (PerkinElmer, Cat. #6005174) presoaked in 0.3% polyethylenimine using the cell harvester (PerkinElmer Filtermate). The plates were washed 3 times by aspirating 30 ml PBS through the plates. Plates were dried in 55° C. oven for 60 min, scintillation fluid was added, and the radioactivity was counted on a Topcount (Packard).

The target of a further experiment is human orexin 2 receptor (Homo sapiens (Human), UniProt O43614). The experiment can be described thus: Human orexin 2 receptor radioligand binding ([3H]-EMPA). The settings on record: averages of 2-20 runs, read-out: hOX2 Ki. The procedure: as §1
Sequence of human orexin 2 receptor (O43614 whole entry): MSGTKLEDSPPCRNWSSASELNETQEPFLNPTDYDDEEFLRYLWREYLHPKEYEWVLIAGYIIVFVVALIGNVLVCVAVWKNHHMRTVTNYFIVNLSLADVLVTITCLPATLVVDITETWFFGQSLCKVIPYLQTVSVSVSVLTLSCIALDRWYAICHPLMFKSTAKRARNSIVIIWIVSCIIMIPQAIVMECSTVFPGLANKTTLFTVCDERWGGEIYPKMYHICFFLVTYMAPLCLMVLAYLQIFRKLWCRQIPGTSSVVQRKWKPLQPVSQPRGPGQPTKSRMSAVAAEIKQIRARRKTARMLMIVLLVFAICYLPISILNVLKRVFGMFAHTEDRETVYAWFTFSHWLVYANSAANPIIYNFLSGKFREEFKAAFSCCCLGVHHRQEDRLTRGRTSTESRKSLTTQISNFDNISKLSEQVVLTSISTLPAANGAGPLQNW
Human Orexin 2 Receptor Radioligand Binding Studies
HEK293 stably expressing human orexin 2 receptor (Genebank accession number NM_001526) were grown to confluency in DMEM (Hyclone, cat #SH30022), 10% FBS, 1×Pen/Strep, 1× NaPyruvate, 10 mM HEPES, 600 ug/ml G418 media on 150 cm^2 tissue culture plates, washed with 5 mM EDTA in PBS (HyClone Dulbecco's Phosphate Buffered Saline 1× with Calcium and Magnesium, Cat #SH30264.01, hereafter referred to simply as PBS) and scraped into 50 ml tubes. After centrifugation (2K×G, 5 min at 4° C.), the supernatant was aspirated and the pellets frozen and stored at −80° C. […] Each cell pellet from a 15 cm plate was resuspended in 10 mL, stored on ice, and homogenized for 45 sec just prior to addition to the reactions. Competition binding experiments in 96 well polypropylene plates were performed using [^3H]-EMPA (Moraveck Corporation, specific activity=29.6 Ci/mmol), diluted to a 5 nM concentration in PBS (2 nM final concentration). […] The final concentration of DMSO in the reactions is equal to or less than 0.1%. Total and nonspecific binding was determined in the absence and presence of 10 μM almorexant. The total volume of each reaction is 200 μL (20 μL of diluted compounds, 80 μL of [^3H]-EMPA diluted in PBS and 100 μL of the cell suspension). […] The plates were washed 3 times by aspirating 30 ml PBS through the plates. Plates were dried in 55° C. oven for 60 min, scintillation fluid was added, and the radioactivity was counted on a Topcount (Packard).

SMILES strings stand for the structures.

One may read the Ki as a measure of affinity in units of concentration, obtained from inhibition or displacement. Consider `COc1ccc(C(=O)N2CCC[C@@H](Nc3ccc(Cl)cn3)[C@@H]2C)c(-n2nccn2)c1` (relative stereo) [Example 181, ((2S*,3R*)-3-((5-chloropyridin-2-yl)amino)-2-methylpiperidin-1-yl)(4-methoxy-2-(2H-1,2,3-triazol-2-yl)phenyl)methanone], for which the results for the Ki on rat orexin 1 receptor, on human orexin 1 receptor and at human orexin 2 receptor were 93 nM, 176 nM and 5200 nM, respectively.

Consider `Cc1cnc(C(=O)N2CCC[C@@H](Nc3cnc(Cl)cn3)[C@@H]2C)c(-n2nccn2)c1` (relative stereo) [Example 182, ((2S*,3R*)-3-((5-chloropyrazin-2-yl)amino)-2-methylpiperidin-1-yl)(5-methyl-3-(2H-1,2,3-triazol-2-yl)pyridin-2-yl)methanone], for which the Ki amounted to 93 nM at rat orexin 1 receptor and 148 nM on human orexin 1 receptor.

As to `COc1ccc(-n2nccn2)c(C(=O)N2CCC[C@@H](Nc3cnc(C(F)(F)F)cn3)[C@@H]2C)c1` (relative stereo) [Example 184, (5-methoxy-2-(2H-1,2,3-triazol-2-yl)phenyl)((2S*,3R*)-2-methyl-3-((5-(trifluoromethyl)pyrazin-2-yl)amino)piperidin-1-yl)methanone], the Ki was 7 nM on rat orexin 1 receptor, 6 nM on human orexin 1 receptor and 191 nM on human orexin 2 receptor.

`Cc1cnc(C(=O)N2CCC[C@@H](N(C)c3nc4ccccc4o3)[C@@H]2C)c(-n2nccn2)c1` (relative stereo) [Example 187, ((2S*,3R*)-3-(benzo[d]oxazol-2-yl(methyl)amino)-2-methylpiperidin-1-yl)(5-methyl-3-(2H-1,2,3-triazol-2-yl)pyridin-2-yl)methanone]: the Ki is 20 nM on rat orexin 1 receptor and 39 nM at human orexin 1 receptor.

As to `Cc1ccc(C(=O)N2CCC[C@@H](N(C)c3ccc(C(F)(F)F)cn3)[C@@H]2C)c(-n2nccn2)n1` (relative stereo) [Example 188, (6-methyl-2-(2H-1,2,3-triazol-2-yl)pyridin-3-yl)((2S*,3R*)-2-methyl-3-(methyl(5-(trifluoromethyl)pyridin-2-yl)amino)piperidin-1-yl)methanone], the values for the inhibition constant (Ki) on rat orexin 1 receptor, on human orexin 1 receptor and on human orexin 2 receptor were 92 nM, 100 nM and more than 10000 nM, respectively.

As to `C[C@H]1[C@H](Nc2ccc(C(F)(F)F)cn2)CCCN1C(=O)c1cccc(F)c1-c1ncccn1` (relative stereo) [Example 189, (3-fluoro-2-(pyrimidin-2-yl)phenyl)((2S*,3R*)-2-methyl-3-((5-(trifluoromethyl)pyridin-2-yl)amino)piperidin-1-yl)methanone], the Ki on rat orexin 1 receptor was determined as 7 nM; at human orexin 1 receptor, 5 nM; on human orexin 2 receptor, 175 nM.

Consider `Cc1noc(-c2cc(F)ccc2C(=O)N2CCC[C@@H](Nc3ccc(C(F)(F)F)cn3)[C@@H]2C)n1` (relative stereo) [Example 190, (4-fluoro-2-(3-methyl-1,2,4-oxadiazol-5-yl)phenyl)((2S*,3R*)-2-methyl-3-((5-(trifluoromethyl)pyridin-2-yl)amino)piperidin-1-yl)methanone], for which the Ki turned out to be 26 nM on rat orexin 1 receptor and 18 nM on human orexin 1 receptor.

As to `C[C@H]1[C@H](Nc2ccc(C(F)(F)F)cn2)CCCN1C(=O)c1ccc(F)cc1-c1ncccn1` (relative stereo) [Example 191, (4-fluoro-2-(pyrimidin-2-yl)phenyl)((2S*,3R*)-2-methyl-3-((5-(trifluoromethyl)pyridin-2-yl)amino)piperidin-1-yl)methanone], the Ki turned out to be 12 nM on rat orexin 1 receptor, 9 nM at human orexin 1 receptor and 421 nM at human orexin 2 receptor.

`C[C@H]1[C@H](Nc2ccc(C(F)(F)F)cn2)CCCN1C(=O)c1ccc(F)cc1-n1nccn1` (relative stereo) [Example 192, (4-fluoro-2-(2H-1,2,3-triazol-2-yl)phenyl)((2S*,3R*)-2-methyl-3-((5-(trifluoromethyl)pyridin-2-yl)amino)piperidin-1-yl)methanone]: the Ki at rat orexin 1 receptor was determined as 27 nM; at human orexin 1 receptor, 25 nM; at human orexin 2 receptor, 543 nM.

Turning to `C[C@H]1[C@H](Nc2ncc(C(F)(F)F)cn2)CCCN1C(=O)c1ccc(F)cc1-n1nccn1` (relative stereo) [Example 198, (4-fluoro-2-(2H-1,2,3-triazol-2-yl)phenyl)((2S*,3R*)-2-methyl-3-((5-(trifluoromethyl)pyrimidin-2-yl)amino)piperidin-1-yl)methanone], the Ki is 119 nM on rat orexin 1 receptor, 92 nM on human orexin 1 receptor and 2500 nM at human orexin 2 receptor.

As for `Cc1ccc(C(=O)N2CCC[C@@H](Nc3ccc(C(F)(F)F)cn3)[C@@H]2C)c(-n2nccn2)n1` [Example 98, (6-methyl-2-(2H-1,2,3-triazol-2-yl)pyridin-3-yl)((2S,3R)-2-methyl-3-((5-(trifluoromethyl)pyridin-2-yl)amino)piperidin-1-yl)methanone], the Ki on rat orexin 1 receptor worked out at 24 nM; on human orexin 1 receptor it was 21 nM.
